# Assay results as given in patent US12630545B2, “Crystal of compound X7 hydrochloride and its preparation method and application” (ORxes Therapeutics Co., Ltd., priority 2020, dated 2026).
# “Also recorded” adds a separate entry of the source. Structures can show the parent of a compound that is named as a salt.
# Columns and labels:
# [1] = Equilibrium solubility in water; format: physicochemical; settings: for Crystal form transformation: XRPD of solid after 24 hours equilibrium in water; for pH: supernatant after 24 hours equilibrium in water
# Experimental: As a comparison, the equilibrium solubility was also tested under the same conditions for crystal form C sample (prepared in Example 11), crystal form D sample (prepared in Example 12), and crystal form F sample (prepared in Example 13). The suspension of each crystal form (˜10 mg/mL) was prepared in the test, magnetically stirred at room temperature for 24 hours (rotating speed˜800 rpm) and then centrifuged (10000 rpm, 5 min). The solubility and pH were determined for the supernatant after filtration ([…] PTFE filter membrane) and XRPD (transmission) for the solid.
# [2] = Hygroscopicity by dynamic vapor sorption (DVS); format: physicochemical
# Experimental: Dynamic vapor sorption (DVS) curves were created using DVS Intrinsic of SMS (Surface Measurement Systems). The relative humidity at 25° C. was corrected by the deliquescence points of LiCl, Mg (NO3)2, and KCl.
# [3] = Solid-state stability (HPLC purity, XRPD crystal form); format: physicochemical
# Experimental: For the solid samples separated under different conditions, the chemical stability was evaluated by determining purity using the HPLC method, and the physical stability was evaluated by determining the crystal form using the XRPD test.
# [4] = test system: 5-hydroxytryptamine (5-HT) receptor in rabbit vascular smooth muscle; test: Antagonism of 5-HT cumulative contraction of rabbit aorta; format: cell-based
# Experimental: (§1) After anesthetizing the rabbit, its chest was quickly cut open. The descending aorta, connective tissues, and surrounding adipose tissues were removed (if the serotonin receptor antagonistic test was carried out, a smooth stainless steel rod was used to remove the endothelial cells), and the aorta was cut into 3-5 mm vascular rings. Then, the steel wire hook was passed through the vascular ring, with one end fixed on the ventilation hook and the other end connected to the tension transducer and placed in a bath tube containing 20 ml of nutrient solution. The change in tension was recorded. The temperature was maintained in the bath tube at 37±0.5° C., and a mixed gas (95% O2+5% CO2) was introduced at the rate of 1-2 bubbles per second. The initial load of the specimen was 1.5 g. The nutrient solution was changed every 20 min, balanced for 2 h, and the test was started after the baseline became stable.
# After the specimen tension became stable, the waveform was recorded and 5-HT added cumulatively in the bath tube (10^−7˜3×10^−4 mol/L) until reaching the maximum response, and the waveform was recorded again. […]
# After the specimen tension became stable, a waveform was recorded and 5-HT cumulatively added in the bath tube (10^−7˜3×10^−4 mol/L) until reaching the maximum response, and the waveform was recorded again. […]
# [5] = test system: α receptor in rabbit vascular smooth muscle; test: Antagonism of norepinephrine cumulative contraction of rabbit aorta; format: cell-based
# Experimental: as §1
# After the specimen tension became stable, a waveform was recorded and norepinephrine added cumulatively in the bath tube (10^−8˜6×10^−5 mol/L) until reaching the maximum response, and then, the waveform was recorded again. […]
# After the specimen tension became stable, a waveform was recorded and norepinephrine added cumulatively in the bath tube (10^−8˜3×10^−3 mol/L) until reaching the maximum response, and then, the waveform was recorded. […]
# [6] = test system: isolated rabbit vascular smooth muscle contraction induced by spasmodic agent AD; test: Relaxation of isolated rabbit vascular smooth muscle contraction induced by spasmodic agent AD; format: cell-based; settings: Oryctolagus cuniculus; adrenaline hydrochloride 10^−5 mol/L; X7 1×10^−9˜1×10^−6 mol/L; read-out: −logEC50 to relax the rabbit aorta contraction by AD (converted)
# Experimental: as §1, with “The initial load of the specimen was 1.5 g. The nutrient solution was changed every 20 min, balanced for 2 h, and the test was started after the baseline became stable.” left out
# After the specimen tension became stable, a waveform was recorded, the spasmodic agent adrenaline hydrochloride (AD) (10^−5 mol/L) was added in the bath tube to induce contraction. […] When the maximum response of the next contraction was basically the same as that of the previous one, the prepared X7 solution (1×10^−9˜1×10^−6 mol/L) was added, and the waveform recorded. With the maximum relaxation response of X7 as 100%, the relaxation percentage of X7 at each concentration was calculated and the dose-effect curve plotted using the relaxation percentage of X7 as the vertical coordinate and the logarithm of each concentration as the horizontal coordinate. […]
# [7] = equilibrium solubility in water, room temperature, 24 hours, hydrochloride
# [8] = room temperature, hydrochloride
# [9] = 3 conditions: sealed 80° C. 1 day, open 25° C./60% RH and 40° C./75% RH 1 week, hydrochloride
smiles,measurement,setting,value
"c1ccc2c(c1)nnn2CCCCN1CCN(c2nsc3ccccc23)CC1 [Crystal form B, 3-(4-(4-(1H-benzotriazol-1-yl)butyl)piperazin-1-yl) benzoisothiazole hydrochloride]",Crystal form transformation,[1]; hydrochloride,No
same,Crystal form transformation,"[1]; listed as crystal form B, hydrochloride",remained unchanged
same,Solubility,[1]; [7],3400 µg/mL
same,pH,[1]; [8],4.9
same,water absorption (DVS),"[2]; adsorption process, 95% RH, 25° C.",12.5%
same,water absorbed (DVS),"[2]; desorption process, 30% RH, 25° C.",0.4%
same,water absorbed (DVS),"[2]; desorption process, 50% RH, 25° C.",12.3%
same,"chemical purity change (chemical stability, HPLC)",[3]; [9],does not decrease
same,HPLC purity change,"[3]; open container, 25° C./60% RH, 1 week",no change in crystal form or HPLC purity
same,"crystal form change (physical stability, XRPD)","[3]; open container, 25° C./60% RH, 1 week, hydrochloride",no change in crystal form
same,"crystal form change (physical stability, XRPD)","[3]; open container, 25° C./60% RH, 1 week, listed as crystal form B, hydrochloride",remains unchanged
"COc1cccc(CCc2ccccc2OCC(CN(C)C)OC(=O)CCC(=O)O)c1 (stereo not shown) [sarpogrelate, reference compound]",PA2 to resist rabbit aorta contraction by 5-HT,[4]; sarpogrelate 10^−6 mol/L,7.21±0.08
"c1ccc2c(c1)nnn2CCCCN1CCN(c2nsc3ccccc23)CC1 [Crystal form D, 3-(4-(4-(1H-benzotriazol-1-yl)butyl)piperazin-1-yl) benzoisothiazole hydrochloride]",Crystal form transformation,"[1]; listed as 0, hydrochloride",transformed into crystal form B
same,Solubility,[1]; [7],3100 µg/mL
same,pH,[1]; [8],4.9
"COc1cc2nc(N3CCN(C(=O)C4COc5ccccc5O4)CC3)nc(N)c2cc1OC (stereo not shown) [doxazosin, reference compound]",PA2 to resist rabbit aorta contraction by NA,[5]; doxazosin 10^−7 mol/L,7.83±0.05
"c1ccc2c(c1)nnn2CCCCN1CCN(c2nsc3ccccc23)CC1 [Crystal form F, 3-(4-(4-(1H-benzotriazol-1-yl)butyl)piperazin-1-yl) benzoisothiazole hydrochloride]",Crystal form transformation,[1]; hydrochloride,transformed into crystal form B
same,Solubility,[1]; [7],2900 µg/mL
same,pH,[1]; [8],4.7
"c1ccc2c(c1)nnn2CCCCN1CCN(c2nsc3ccccc23)CC1 [Crystal form C, 3-(4-(4-(1H-benzotriazol-1-yl)butyl)piperazin-1-yl) benzoisothiazole hydrochloride]",Crystal form transformation,[1]; hydrochloride,transformed into crystal form B
same,Solubility,[1]; [7],3300 µg/mL
same,pH,[1]; [8],4.9
"c1ccc2c(c1)nnn2CCCCN1CCN(c2nsc3ccccc23)CC1 [Crystal form A, 3-(4-(4-(1H-benzotriazol-1-yl)butyl)piperazin-1-yl) benzoisothiazole hydrochloride]",Crystal form transformation,[1]; hydrochloride,No
same,Crystal form transformation,"[1]; listed as crystal form A, hydrochloride",remained unchanged
same,pH,[1]; [8],4.6
same,solubility at 24 h,"[1]; water, thermodynamic from solid, equilibrium solubility in water, room temperature, 24 hours",3800 µg/mL
same,crystal form transformation after the DVS test,[2]; 25° C.,no crystal form transformation
same,water absorbed (DVS),[2]; 25° C./80% RH,0.08%
same,hygroscopicity,"[2]; DVS, 25° C./80% RH, China Pharmacopoeia 2015 guide",no hygroscopicity
same,"chemical purity change (chemical stability, HPLC)",[3]; [9],does not undergo crystal form transformation and chemical purity reduction; also recorded: no crystal form transformation or reduction of HPLC purity
same,"crystal form transformation (physical stability, XRPD)",[3]; [9],does not undergo crystal form transformation; also recorded: no crystal form transformation
"c1ccc2c(c1)nnn2CCCCN1CCN(c2nsc3ccccc23)CC1 [X7, 3-(4-(4-(1H-benzotriazol-1-yl)butyl)piperazin-1-yl) benzoisothiazole hydrochloride]",EC50,[6],8.51 nM
same,PA2 to resist rabbit aorta contraction by 5HT,"[4]; X7 10^−7 mol/L, endothelium removed",8.86±0.14
same,PA2 to resist rabbit aorta contraction by norepinephrine,[5]; X7 3×10^−8 mol/L,7.98±0.04
